The values that follow come from patent US12428403B2, “N-(heterocyclyl and heterocyclylalkyl)-3-benzylpyridin-2-amine derivatives as SSTR4 agonists” (Takeda Pharmaceutical Company Limited, priority 2020, dated 2025).

pEC50, pIC50: −log10 of the molar value.

One experiment has as its target SSTR1 (Homo sapiens, UniProt P30872). Put plainly: biochemical.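 Further: competitive binding to membranes of CHO-K1 cells overexpressing SSTR1, incubated 60 min at room temperature, radioactivity read by scintillation counting after filtration.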
Experiment [1] addresses T1, SSTR4 (Homo sapiens, UniProt P31391). Put plainly: SSTR4 I-125 somatostatin competition binding assay (CHO-K1 membranes). Details: host or cells: CHO-K1. The settings on record: competition with I-125 labeled somatostatin, membranes from CHO-K1 overexpressing SSTR4; read-out: SSTR4 Binding pIC50 (converted). From the text: SSTR4I-125 Somatostatin Competition Binding Assay
Membranes from CHO-K1 cells overexpressing SSTR4 are purchased from Perkin Elmer (catalog number ES-524-M400UA). […] The scintillator sheets are melted to filters using a heat block.

For experiment [2], the target named is T1, SSTR4. Put plainly: cell-based.
Method: This cell-based assay measures the ability of compounds to inhibit forskolin stimulated cAMP in CHO-K1 cells overexpressing SSTR4. CHO-K1 cells overexpressing SSTR4 (CHO-SSTR4) are purchased from DiscoveRx (product code 95-0059C2). The CHO-SSTR4 cells are maintained in F12K media with 10% Fetal Bovine Serum (Hyclone), 1% Pen/Strep (Life Technologies), and 800 μg/mL G418 (Life Technologies). To perform the assay, 3000 cells are plated per well in white 384-well plate (Corning 3570) in 50 complete media and the cells are allowed to attach for 16 hours in a 37° C., 5% CO2 incubator. The next day, the culture media is removed from the cells and the cells are washed (added then removed) with Krebs Ringer Buffer (ZenBio, KRB-1000 mL). Test compounds are suspended in DMSO and diluted in stimulation buffer: Krebs Ringer Buffer plus 0.5% BSA (Roche), 300 μM IBMX (Sigma), and 350 nM forskolin (Sigma). The cells are incubated in 10 μL compound/stimulation buffer for 30 minutes at room temperature. Cellular cAMP levels are detected with a HTRF LANCE Ultra cAMP kit (Perkin Elmer, catalog number TRF0264).
The assay is performed in accordance with the manufacturer's instructions. Five μL of diluted Eu-W8044 labeled streptavidin (dilution: 1:50 in cAMP Detection Buffer) is added to each well. Then 5 μL of diluted biotin cAMP (dilution: 1:150 in cAMP Detection Buffer) is added to each well. The plates are covered and allowed to incubate for 60 minutes at room temperature on a shaker. HTRF (665 nm/615 nm) is read on a Perkin Elmer ENVISION plate reader. The pEC50 values are generated using Activity Base for Screening Data Management.
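Wherever pEC50 is given: CHO-K1 cells overexpressing SSTR4, reduction of forskolin-driven cAMP after 30 min compound exposure at room temperature, cAMP read by HTRF LANCE Ultra kit.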

Sequence of SSTR1 (P30872 whole entry): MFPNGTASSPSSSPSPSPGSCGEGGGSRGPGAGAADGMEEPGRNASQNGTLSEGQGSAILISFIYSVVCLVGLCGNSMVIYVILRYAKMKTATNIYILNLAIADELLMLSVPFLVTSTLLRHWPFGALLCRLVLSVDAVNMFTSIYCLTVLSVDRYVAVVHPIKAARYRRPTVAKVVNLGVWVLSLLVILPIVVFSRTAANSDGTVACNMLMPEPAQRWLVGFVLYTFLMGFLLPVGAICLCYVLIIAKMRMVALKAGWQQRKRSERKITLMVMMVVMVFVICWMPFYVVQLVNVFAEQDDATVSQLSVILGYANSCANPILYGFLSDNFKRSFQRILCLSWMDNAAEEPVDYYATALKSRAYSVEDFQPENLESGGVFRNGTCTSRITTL
T1 sequence (P31391 whole entry): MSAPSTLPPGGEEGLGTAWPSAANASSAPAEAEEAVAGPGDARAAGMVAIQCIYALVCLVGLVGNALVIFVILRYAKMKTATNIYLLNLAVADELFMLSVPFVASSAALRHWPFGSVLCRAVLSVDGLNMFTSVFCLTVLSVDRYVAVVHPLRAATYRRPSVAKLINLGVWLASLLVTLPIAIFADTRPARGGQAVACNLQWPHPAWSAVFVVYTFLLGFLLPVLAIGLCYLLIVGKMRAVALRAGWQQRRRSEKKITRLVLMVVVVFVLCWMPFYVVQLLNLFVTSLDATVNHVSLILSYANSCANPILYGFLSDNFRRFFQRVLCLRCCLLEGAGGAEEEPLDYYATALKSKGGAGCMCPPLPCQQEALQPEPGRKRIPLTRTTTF
Method for SSTR1: SSTR1 I-125 Somatostatin Competition Binding Assay for Selectivity Versus SSTR1
Membranes from CHO-K1 cells overexpressing SSTR1 are purchased from Perkin Elmer (catalog number ES-520-M400UA). Test compounds are suspended in DMSO and then diluted in assay buffer (25 mM HEPES pH 7.4, 10 mM MgCl2, 1 mM CaCl2, 0.5% BSA) plus 0.4 nM I-125 labeled somatostatin (Perkin Elmer catalog number NEX389). […] Then 10 μg of SSTR1 membranes in 50 μL assay buffer are added per well. The plate is incubated for 60 minutes at room temperature. […] The contents of the assay plate are transferred to filters with a TomTech harvester and washed 5 times with 20 mM HEPES, 100 mM NaCl. […] The scintillator sheets are melted to the filters using a heat block. The filters are then read in a MicroBeta scintillation counter. Binding Ki curves are generated using Activity Base for Screening Data Management and the results are reported as pIC50.

In turn, `CNC(=O)c1cnc(NCCN2CCCC2)c([C@H](C)c2ccc(F)cc2)n1` (single isomer, unassigned) [Example 24] had a negative logarithm of the IC50 (pIC50) against SSTR1 of 5.29. Moreover, at SSTR4 [1], the IC50 is 0.0457 µM. For the same compound, the pEC50 on SSTR4 [2] was 7.73.

`CC(c1ccc(F)cc1)c1nc(-c2nccs2)cnc1NCCN1CCCC1` (stereo not drawn) [Example 125, 3-(1-(4-fluorophenyl)ethyl)-N-(2-(pyrrolidin-1-yl)ethyl)-5-(thiazol-2-yl)pyrazin-2-amine] had a pIC50 against SSTR1 of 5.91. Further, the IC50 on SSTR4 [1] was 0.038 µM. Besides, at SSTR4 [2], the pEC50 was 7.37.

Compound `Cc1nc(NCCN2CCCC2)c(C(C)c2ccc(F)cc2)nc1C(=O)N[C@H]1CCOC1` (stereo partly drawn) [Example 69, 6-(1-(4-fluorophenyl)ethyl)-3-methyl-5-((2-(pyrrolidin-1-yl)ethyl)amino)-N-((S)-tetrahydrofuran-3-yl)pyrazine-2-carboxamide] had a negative logarithm of the IC50 (pIC50) at SSTR1 of 5.62. For the same compound, the IC50 at SSTR4 [1] is 0.135 µM. The pEC50 on SSTR4 [2] was 8.06.

In turn, `CO[C@H]1CCN(C(=O)c2nc(C(C)c3ccc(F)cc3)c(NCCN3CCCC3)nc2C)C1` (stereo partly drawn) [Example 68, (6-(1-(4-fluorophenyl)ethyl)-3-methyl-5-((2-(pyrrolidin-1-yl)ethyl)amino)pyrazin-2-yl)((S)-3-methoxypyrrolidin-1-yl)methanone] had a negative logarithm of the IC50 (pIC50) against SSTR1 of 5.45. Moreover, on SSTR4 [1], the IC50 is 0.0316 µM. This compound also had a pEC50 at SSTR4 [2] of 9.17.

In turn, `Cc1nnc([C@H](C)c2ccccc2)c(N[C@@H]2CCN(C)C2)n1` (single isomer, unassigned) [Example 149] had a pIC50 at SSTR1 of 4.89. In addition, at SSTR4 [1], the IC50 is 0.174 µM. The same compound had a negative-log EC50 (pEC50) at SSTR4 [2] of 7.40.

The compound `Cc1nc(NCCN2CCCC2)c(C(C)c2ccc(F)cc2)nc1C(=O)N(C)C1CC1` (stereo not drawn) [Example 65, N-cyclopropyl-6-(1-(4-fluorophenyl)ethyl)-N,3-dimethyl-5-((2-(pyrrolidin-1-yl)ethyl)amino)pyrazine-2-carboxamide] gave a pIC50 at SSTR1 of 5.47. Also, at SSTR4 [1], the IC50 is 0.017 µM. Moreover, the pEC50 on SSTR4 [2] was 8.79.

On SSTR1, `Cc1nnc([C@H](C)c2ccc(F)cc2)c(N[C@H]2CCN(C)C2)n1` (single isomer, unassigned) [Example 146] showed a pIC50 of 5.00. In addition, on SSTR4 [1], the IC50 was 0.0912 µM. Further, on SSTR4 [2], the pEC50 is 7.56.

`Cc1nc(NCCN2CCC2)c(Cc2ccc(F)cc2)nc1C#N` [Example 96, 5-((2-(azetidin-1-yl)ethyl)amino)-6-(4-fluorobenzyl)-3-methylpyrazine-2-carbonitrile] had a pIC50 against SSTR1 of 4.96. The IC50 on SSTR4 [1] is 0.0617 µM. The compound further showed a negative logarithm of the EC50 (pEC50) on SSTR4 [2] of 7.56.

Take `Fc1ccc(Cc2nnc(C3CC3)nc2NCCN2CCC2)cc1` [Example 138, N-(2-(azetidin-1-yl)ethyl)-3-cyclopropyl-6-(4-fluorobenzyl)-1,2,4-triazin-5-amine]: the negative logarithm of the IC50 (pIC50) at SSTR1 is 5.30. For the same compound, the IC50 on SSTR4 [1] is 0.0891 µM. In addition, the negative logarithm of the EC50 (pEC50) at SSTR4 [2] is 7.79.

Consider `C[C@H](c1ccc(F)cc1)c1nc(C(N)=O)cnc1NCCN1CCCC1` (single isomer, unassigned) [Example 21], for which, on SSTR1, the negative logarithm of the IC50 (pIC50) is 5.55. Further, the IC50 at SSTR4 [1] was 0.0245 µM. On SSTR4 [2], this compound showed a pEC50 of 8.29.

At SSTR1, `Cc1nc(Cc2ccc(F)cc2)c(NCCN2CCC2)nc1C` [Example 78, N-(2-(azetidin-1-yl)ethyl)-3-(4-fluorobenzyl)-5,6-dimethylpyrazin-2-amine] showed a negative logarithm of the IC50 (pIC50) of 4.55. The IC50 on SSTR4 [1] is 0.0776 µM. The compound also gave a pEC50 on SSTR4 [2] of 7.90.

In turn, `CO[C@H]1CCN(C(=O)c2cnc(NCCN3CCCC3)c([C@H](C)c3ccc(F)cc3)n2)C1` [Example 10, (6-((R)-1-(4-fluorophenyl)ethyl)-5-((2-(pyrrolidin-1-yl)ethyl)amino)pyrazin-2-yl)((S)-3-methoxypyrrolidin-1-yl)methanone] showed a negative logarithm of the IC50 (pIC50) against SSTR1 of 5.50. On SSTR4 [1], the IC50 was 0.38 µM. Besides, at SSTR4 [2], the negative-log EC50 (pEC50) was 7.57.

In turn, `COc1cccc(Cc2nc3cccc(C)c3nc2NCCN2CCC2)c1` (single isomer, unassigned) [Example 4, N-(2-(azetidin-1-yl)ethyl)-3-(3-methoxybenzyl)-8-methylquinoxalin-2-amine] showed a negative-log IC50 (pIC50) against SSTR1 of 5.81. The IC50 at SSTR4 [1] was 0.038 µM. The compound also had a pEC50 on SSTR4 [2] of 7.20.

For `CC(c1ccc(F)cc1)c1ncc(C(=O)N(C)C)nc1NCCN1CCCC1` (stereo not drawn) [Example 28], at SSTR1, the pIC50 was 5.78. Moreover, the IC50 on SSTR4 [1] was 0.389 µM. The same compound showed a pEC50 on SSTR4 [2] of 8.33.

Consider `C[C@H](c1ccc(F)cc1)c1nc(C(=O)N2CCCC2)cnc1NCCN1CCCC1` [Example 8, (R)-(6-(1-(4-fluorophenyl)ethyl)-5-((2-(pyrrolidin-1-yl)ethyl)amino)pyrazin-2-yl)(pyrrolidin-1-yl)methanone], for which the pIC50 at SSTR1 is 5.71. In addition, the IC50 at SSTR4 [1] is 0.141 µM. The same compound had a negative logarithm of the EC50 (pEC50) on SSTR4 [2] of 7.50.

On to `CNC(=O)c1nc(Cc2ccc(F)cc2)c(N[C@@H]2CCN(C)C[C@H]2C)nc1C` (racemic) [Example 46, 5-((trans-1,3-dimethylpiperidin-4-yl)amino)-6-(4-fluorobenzyl)-N,3-dimethylpyrazine-2-carboxamide], for which the pIC50 at SSTR1 is 4.84. Besides, the IC50 at SSTR4 [1] is 0.49 µM. Besides, the negative logarithm of the EC50 (pEC50) at SSTR4 [2] is 7.14.

Compound `Cc1cccc(Cc2nc(C(N)=O)c(C)nc2NCCN2CCCC2)c1` [Example 41, 3-methyl-6-(3-methylbenzyl)-5-((2-(pyrrolidin-1-yl)ethyl)amino)pyrazine-2-carboxamide] gave a negative-log IC50 (pIC50) on SSTR1 of 4.88. Moreover, on SSTR4 [1], the IC50 was 0.0234 µM. Also, the negative logarithm of the EC50 (pEC50) on SSTR4 [2] is 8.68.

Regarding `Cc1nc(NCCN2CCCC2)c(C(C)c2ccc(F)cc2)nc1C(=O)N(C)C` (stereo not drawn) [Example 48, 6-(1-(4-fluorophenyl)ethyl)-N,N,3-trimethyl-5-((2-(pyrrolidin-1-yl)ethyl)amino)pyrazine-2-carboxamide], on SSTR1, the pIC50 was 5.02. In addition, the IC50 on SSTR4 [1] is 0.0117 µM. Further, at SSTR4 [2], the pEC50 was 9.11.

For `CNC(=O)c1cnc(NCCN2CCCC2)c(C(C)c2ccc(F)cc2)n1` (stereo not drawn) [Example 22, 6-(1-(4-fluorophenyl)ethyl)-N-methyl-5-((2-(pyrrolidin-1-yl)ethyl)amino)pyrazine-2-carboxamide], the negative logarithm of the IC50 (pIC50) against SSTR1 is 4.98. Moreover, at SSTR4 [1], the IC50 was 0.0776 µM. This compound showed a pEC50 at SSTR4 [2] of 8.43.

`C[C@H](c1ccc(F)cc1)c1nc(C(=O)N(C)C2CC2)cnc1NCCN1CCCC1` [Example 17, (R)-N-cyclopropyl-6-(1-(4-fluorophenyl)ethyl)-N-methyl-5-((2-(pyrrolidin-1-yl)ethyl)amino)pyrazine-2-carboxamide]: at SSTR1, the negative-log IC50 (pIC50) is 5.10. For the same compound, the IC50 at SSTR4 [1] is 0.162 µM. Also, the pEC50 on SSTR4 [2] is 7.93.

`CNC(=O)c1nc(Cc2cccc(C)c2)c(NCCN2CCCC2)nc1C` [Example 40, N,3-dimethyl-6-(3-methylbenzyl)-5-((2-(pyrrolidin-1-yl)ethyl)amino)pyrazine-2-carboxamide]: the negative-log IC50 (pIC50) against SSTR1 is 5.05. For the same compound, the IC50 at SSTR4 [1] is 0.0219 µM. Further, the negative-log EC50 (pEC50) at SSTR4 [2] was 8.93.

Compound `Cc1nnc([C@@H](C)c2ccccc2)c(N[C@H]2CCN(C)C2)n1` (single isomer, unassigned) [Example 152] gave a negative logarithm of the IC50 (pIC50) against SSTR1 of 5.00. In addition, the IC50 at SSTR4 [1] is 0.204 µM. The compound further gave a pEC50 at SSTR4 [2] of 7.57.

As to `CC(c1ccc(F)cc1)c1nc(C(N)=O)cnc1NCCN1CCCC1` (stereo not drawn) [Example 19, 6-(1-(4-fluorophenyl)ethyl)-5-((2-(pyrrolidin-1-yl)ethyl)amino)pyrazine-2-carboxamide], at SSTR1, the negative-log IC50 (pIC50) was 5.24. Moreover, the IC50 at SSTR4 [1] was 0.0501 µM. Besides, the pEC50 on SSTR4 [2] is 8.27.

With `Cc1nc(NCCN2CCCC2)c(C(C)c2ccc(F)cc2)nc1C(=O)N[C@H]1C[C@H](F)C1` (stereo partly drawn) [Example 76, N-(trans-3-fluorocyclobutyl)-6-(1-(4-fluorophenyl)ethyl)-3-methyl-5-((2-(pyrrolidin-1-yl)ethyl)amino)pyrazine-2-carboxamide], the pEC50 on SSTR4 [2] is 8.11.

As to `CC1CN(C)CCC1Nc1ncc(C(F)(F)F)nc1Cc1ccc(F)cc1` (mixture of isomers) [Example 91, N-(1,3-dimethylpiperidin-4-yl)-3-(4-fluorobenzyl)-5-(trifluoromethyl)pyrazin-2-amine], the negative-log EC50 (pEC50) on SSTR4 [2] was 6.18.

The compound `Cc1nnc([C@@H](C)c2ccc(F)cc2)c(N[C@@H]2CCN(C)C2)n1` (single isomer, unassigned) [Example 142] had a pEC50 at SSTR4 [2] of 6.92.

For `CC1CN(C)CCC1Nc1ncc(C(N)=O)cc1Cc1ccc(F)cc1` (mixture of isomers) [Example 102, 6-((1,3-dimethylpiperidin-4-yl)amino)-5-(4-fluorobenzyl)nicotinamide], the negative-log EC50 (pEC50) at SSTR4 [2] is 6.40.

`Cc1nnc([C@@H](C)c2ccccc2)c(N[C@@H]2CCN(C)C2)n1` (single isomer, unassigned) [Example 150] showed a negative logarithm of the EC50 (pEC50) on SSTR4 [2] of 6.44.

On to `CNC(=O)c1cnc(N[C@@H]2CCN(C)C2)c([C@H](C)c2ccc(F)cc2)n1` (single isomer, unassigned) [Example 35], for which the pEC50 on SSTR4 [2] was 5.92.

On SSTR4 [2], `COc1cccc(Cc2nc3c(C)cccc3nc2NCCN2CCC2)c1` (single isomer, unassigned) [Example 5, N-(2-(azetidin-1-yl)ethyl)-3-(3-methoxybenzyl)-5-methylquinoxalin-2-amine] had a pEC50 of 6.48.

With `C[C@H](c1ccc(F)cc1)c1nc(C(=O)NC2CCC2)cnc1NCCN1CCCC1` [Example 9, (R)-N-cyclobutyl-6-(1-(4-fluorophenyl)ethyl)-5-((2-(pyrrolidin-1-yl)ethyl)amino)pyrazine-2-carboxamide], the pEC50 on SSTR4 [2] is 7.09.

Turning to `Cc1nnc([C@H](C)c2ccccc2)c(N[C@H]2CCN(C)C2)n1` (single isomer, unassigned) [Example 151], the pEC50 on SSTR4 [2] is 6.50.

A word on the pIC50: it is the IC50 on a negative log10 scale, so that one unit is a factor of ten. Higher therefore signals a small IC50. As usually defined, the pEC50 is −log10 of the EC50, conventionally taken in molar units. Read a low pEC50 as a large EC50.
